This note sets out measurements from patent US9029376B2, “Small molecule inhibitors for the treatment or prevention of dengue virus infection” (Siga Technologies, Inc., priority 2008, dated 2015).

The subject of the first test is Dengue-2 (Strain New Guinea C). Nature of the test: Dengue-2 viral yield assay in Vero cells. The format is cell-based. The conditions noted are these: Dengue virus, Vero, 48 h, read-out: Activity (anti-dengue 2 viral activity, EC50). The protocol: Compounds that were active in the primary screen were tested for activity in viral yield assays. […] Vero cells in 12-well plates were infected with dengue-2 virus at a multiplicity of infection (MOI) of 0.1, treated with compound (or DMSO as a control), incubated at 37° C., harvested 48 hours post infection and titered on Vero cells as described above. The EC50 was calculated through ExcelFit. Those compounds with activity below 1 μM are indicated with “A”, those with activity between 1 and 10 μM are indicated with “B”, and those with activity between 10 and 25 μM with “C”.
The term EC50 denotes the concentration needed to bring the measured effect to its halfway point. For `CCCC(=O)Nc1ccc2nc(SCC(=O)N3CCN(c4ccccc4)CC3)sc2c1` [Compound 75, N-{2-[2-oxo-2-(4-phenyl-piperazin-1-yl)-ethylsulfanyl]-benzothiazol-6-yl}-butyramide], the EC50 was above 25 µM.

`O=C(O)c1ccc2oc(SCC(=O)N3CCCCC3)nc2c1` [Compound 48, 2-(2-oxo-2-piperidin-1-yl-ethylsulfanyl)-benzooxazole-5-carboxylic acid]: the EC50 is above 25 µM.

With `O=C1CC(N2CCN(c3nc4ccccc4s3)CC2)C(=O)N1c1ccc(F)cc1` (stereo not drawn) [Compound 60, 3-(4-Benzothiazol-2-yl-piperazin-1-yl)-1-(4-fluoro-phenyl)-pyrrolidine-2,5-dione], the EC50 is above 25 µM.

Consider `NC(=O)C1(N2CCCCC2)CCN(C(=O)CSc2nc3ccccc3s2)CC1` [Compound 9, 1′-[2-(Benzothiazol-2-ylsulfanyl)-acetyl]-[1,4′]bipiperidinyl-4′-carboxylic acid amide], for which the EC50 lay within 1 to 10 µM.

The same test, now with this note: Dengue virus; Dengue-2 strain New Guinea C, Vero cells, MOI 0.1, harvested 48 hours post infection, viral yield; read-out: Activity (anti-dengue 2 viral activity, EC50).
For the compound `O=C(Nc1ccc2nc(SCC(=O)N3CCCC3)sc2c1)c1ccc(Cl)cc1` [Compound 58, 4-Chloro-N-[2-(2-oxo-2-pyrrolidin-1-yl-ethylsulfanyl)-benzothiazol-6-yl]-benzamide], the EC50 is above 25 µM.

With `O=C(CSc1nnc(-c2ccccc2)n1-c1ccccc1)Nc1ccc2nc(SCC(=O)N3CCOCC3)sc2c1` [Compound 35, 2-(4,5-Diphenyl-4H-[1,2,4]triazol-3-ylsulfanyl)-N-[2-(2-morpholin-4-yl-2-oxo-ethylsulfanyl)-benzothiazol-6-yl]-acetamide], the EC50 was above 25 µM.

In the case of `O=C(CSc1nc2ccccc2n1-c1ccccc1)N1CCN(c2ccccc2)CC1` [Compound 51, 2-(1-Phenyl-1H-benzoimidazol-2-ylsulfanyl)-1-(4-phenyl-piperazin-1-yl)-ethanone], the EC50 was above 25 µM.

In the case of `O=C(CSc1nc2ccccc2[nH]1)N1CCc2ccccc2C1` [Compound 61, 2-(1H-Benzoimidazol-2-ylsulfanyl)-1-(3,4-dihydro-1H-isoquinolin-2-yl)-ethanone], the EC50 was above 25 µM.

Turning to `O=C(CSc1nc2ccc(/N=C/c3c4ccccc4cc4ccccc34)cc2s1)N1CCOCC1` [Compound 19, 2-(6-{[1-Anthracen-9-yl-meth-(E)-ylidene]-amino}-benzothiazol-2-ylsulfanyl)-1-morpholin-4-yl-ethanone], the EC50 was above 25 µM.

As to `O=C(CSc1nc2ccc([N+](=O)[O-])cc2s1)N1CCCCC1` [Compound 49, 2-(6-Nitro-benzothiazol-2-ylsulfanyl)-1-piperidin-1-yl-ethanone], the EC50 is above 25 µM.

As for `Cn1c(SCC(=O)Nc2ccc3nc(SCC(=O)N4CCOCC4)sc3c2)nnc1-c1ccccc1` [Compound 37, 2-(4-Methyl-5-phenyl-4H-[1,2,4]triazol-3-ylsulfanyl)-N-[2-(2-morpholin-4-yl-2-oxo-ethylsulfanyl)-benzothiazol-6-yl]-acetamide], the EC50 is above 25 µM.

For `Cc1ccc(C(=O)Nc2ccc3nc(SCC(=O)N4CCCCC4)sc3c2)cc1` [Compound 56, 4-Methyl-N-[2-(2-oxo-2-piperidin-1-yl-ethylsulfanyl)-benzothiazol-6-yl]-benzamide], the EC50 was above 25 µM.

Regarding `Nc1ccc2nc(SCC(=O)N3CCN(Cc4ccccc4)CC3)sc2c1` [Compound 10, 2-(6-Amino-benzothiazol-2-ylsulfanyl)-1-(4-benzyl-piperazin-1-yl)-ethanone], the EC50 was 1 to 10 µM.

For `O=C(CSc1nc2ccc(/N=C/c3ccc(Sc4nnnn4-c4ccccc4)o3)cc2s1)N1CCOCC1` [Compound 23, 1-Morpholin-4-yl-2-(6-{[1-[5-(1-phenyl-1H-tetrazol-5-ylsulfanyl)-furan-2-yl]-meth-(E)-ylidene]-amino}-benzothiazol-2-ylsulfanyl)-ethanone], the half-maximal effective concentration (EC50) is above 25 µM.

Regarding `CCCCOc1ccc(C(=O)Nc2ccc3nc(SCC(=O)N4CCOCC4)sc3c2)cc1` [Compound 22, 4-Butoxy-N-[2-(2-morpholin-4-yl-2-oxo-ethylsulfanyl)-benzothiazol-6-yl]-benzamide], the EC50 was above 25 µM.
